In patent EP1367044B1, “Calixarene-derivatives having anti-viral activity” (Aids Care Pharma Limited, priority 2002, dated 2003):

Legend:
HIV = settings: drug used on its own, patients; cited from earlier work
[1] = human, in vivo; cited from earlier work
wild-type HIV-1(111a) = type: cell-based; settings: CEM cells, 4 days incubation at 37°C, syncytium formation
Method: The results shown in Table 1 for test 2 were obtained by testing cell cultures in accordance with the following procedure.
CEM cells were suspended at approximately 250,000 cells per milliliter of culture medium and infected with wild-type HIV-1(111a) at approximately 100 times the 50% cell culture infective dose (CCID50) per milliliter. Then 100µl of the infected cell suspensions were added to 200 µl microtiter plate wells containing 100 µl of an appropriate dilution of the test compounds. After 4 days incubation at 37°C the cell cultures were microscopically examined for syncytium formation.

gp120/CD4 binding = gp120/CD4 binding (UniProt P01730+P03375); assay: Test 1: inhibition of gp120/CD4 binding, recombinant proteins in an immunoassay format

Molecule	REDUCTION IN VIRAL LOAD (HIV)	SIDE EFFECTS [1]	other results
Nc1nc(NC2CC2)c2ncn([C@H]3C=C[C@@H](CO)C3)c2n1 [Abacavir]	50-90%		
CC(C)Nc1cccnc1N1CCN(C(=O)c2cc3cc(NS(C)(=O)=O)ccc3[nH]2)CC1 [Delaviridine]	50-90%		
O=c1[nH]cnc2c1ncn2[C@H]1CC[C@@H](CO)O1 [Didanosine (ddl), Didanosine]	50-90%		
O=C1Nc2ccc(Cl)cc2[C@@](C#CC2CC2)(C(F)(F)F)O1 [Efavirenz]	50-90%		
Nc1ccn([C@@H]2CS[C@H](CO)O2)c(=O)n1 [Lamivudine (3TC), Lamivudine]		gastrointestinal disturbances, hair loss, myelosuppression, exacerbation of peripheral neuropathy	
Cc1c(O)cccc1C(=O)N[C@@H](CSc1ccccc1)[C@H](O)CN1C[C@H]2CCCC[C@H]2C[C@H]1C(=O)NC(C)(C)C [Nelfinavir (Viracept), Nelfinavir]		diarrohea, nausea & vomiting	
Cc1ccnc2c1NC(=O)c1cccnc1N2C1CC1 [Nevirapine]	50-90%		
CC(C)c1nc(CN(C)C(=O)N[C@H](C(=O)N[C@@H](Cc2ccccc2)C[C@H](O)[C@H](Cc2ccccc2)NC(=O)OCc2cncs2)C(C)C)cs1 [Ritonavir]		diarrhoea nausea, vomiting, hepatitis, headache	
CC(C)(C)NC(=O)[C@@H]1C[C@@H]2CCCC[C@@H]2CN1C[C@@H](O)[C@H](Cc1ccccc1)NC(=O)[C@H](CC(N)=O)NC(=O)c1ccc2ccccc2n1 [Saquinavir]		loose stools, nausea, headache	
Cc1cn([C@H]2C=C[C@@H](CO)O2)c(=O)[nH]c1=O [Stavudine (d4T), Stavudine]	50-90%		
Nc1ccn([C@H]2CC[C@@H](CO)O2)c(=O)n1 [Zalcitabine (ddc), Zalcitabine]	50-90%		
Cc1cn([C@H]2C[C@H](N=[N+]=[N-])[C@@H](CO)O2)c(=O)[nH]c1=O [Zidovudine (AZT), Zidovudine]	50-90%	myelosupression, myopathy, nausea, headache, anaemia	
dodecapotassium acetate of p-bromopyrogallol P-F-phenyl tetramer [AC-1 (1151c)]			Test 2 EC50 (wild-type HIV-1(111a)): 4 µg/mL; % inhibition of gp120/CD4 binding (gp120/CD4 binding; Conc um 0.39): 48%; % inhibition of gp120/CD4 binding (gp120/CD4 binding; Conc um 0.78): 55%; % inhibition of gp120/CD4 binding (gp120/CD4 binding; Conc um 1.56): 62%; % inhibition of gp120/CD4 binding (gp120/CD4 binding; Conc um 3.125): 70%; % inhibition of gp120/CD4 binding (gp120/CD4 binding; Conc um 6.25): 82%; % inhibition of gp120/CD4 binding (gp120/CD4 binding; Conc um 12.5): 86%; % inhibition of gp120/CD4 binding (gp120/CD4 binding; Conc um 25): 91%; % inhibition of gp120/CD4 binding (gp120/CD4 binding; Conc um 50): 93%; % inhibition of gp120/CD4 binding (gp120/CD4 binding; Conc um 100): 96%; EC50 (gp120/CD4 binding; read-out: Test 1 EC50, concentration which reduces gp120 interaction with CD4 by 50%): 500 to 1000 nM
